Test results from ChEMBL document CHEMBL1135289, “Anthranilate sulfonamide hydroxamate TACE inhibitors. Part 2: SAR of the acetylenic P1' group” (Bioorg Med Chem Lett, 2002).

Key:
[1] = tested on: THP-1; experiment: Compound was evaluated for its ability to inhibit LPS-stimulated TNF-alpha production in THP-1 cells at a concentration of 1 uM; assay type: functional; conditions: Homo sapiens
[2] = tested on: THP-1; experiment: Inhibition of LPS-stimulated TNF-alpha production in THP-1 cells at a concentration of 3 uM; assay type: functional; conditions: Homo sapiens
[3] = target: Disintegrin and metalloproteinase domain-containing protein 17 (Homo sapiens, UniProt P78536); experiment: Inhibition of Tumor necrosis factor alpha converting enzyme
Chain of Disintegrin and metalloproteinase domain-containing protein 17 (P78536 whole entry, the tested form may be a part): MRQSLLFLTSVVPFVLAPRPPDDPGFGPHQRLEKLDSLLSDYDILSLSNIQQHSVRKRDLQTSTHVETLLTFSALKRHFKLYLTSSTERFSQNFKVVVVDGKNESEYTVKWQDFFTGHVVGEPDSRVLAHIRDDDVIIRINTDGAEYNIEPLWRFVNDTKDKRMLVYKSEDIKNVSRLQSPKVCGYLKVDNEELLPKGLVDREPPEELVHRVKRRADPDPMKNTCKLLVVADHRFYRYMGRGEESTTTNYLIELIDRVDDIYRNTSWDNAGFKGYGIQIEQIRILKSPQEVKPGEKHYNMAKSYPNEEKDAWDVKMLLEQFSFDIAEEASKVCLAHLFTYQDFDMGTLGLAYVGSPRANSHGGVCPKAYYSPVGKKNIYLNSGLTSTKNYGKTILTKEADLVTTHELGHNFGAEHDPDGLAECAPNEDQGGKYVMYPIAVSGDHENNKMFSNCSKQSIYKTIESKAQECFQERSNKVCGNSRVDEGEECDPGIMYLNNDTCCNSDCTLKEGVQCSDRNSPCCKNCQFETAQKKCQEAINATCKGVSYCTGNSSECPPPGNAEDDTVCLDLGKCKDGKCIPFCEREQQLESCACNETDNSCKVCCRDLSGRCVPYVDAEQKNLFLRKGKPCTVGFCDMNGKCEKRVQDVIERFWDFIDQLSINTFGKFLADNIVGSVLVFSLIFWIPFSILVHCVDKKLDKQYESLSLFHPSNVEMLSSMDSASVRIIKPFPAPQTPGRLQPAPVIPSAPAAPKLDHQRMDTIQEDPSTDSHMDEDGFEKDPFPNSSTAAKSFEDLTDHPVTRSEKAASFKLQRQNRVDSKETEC

[4] = target: T1, Collagenase 3 (Homo sapiens, UniProt P45452); experiment: Inhibition of Matrix metalloprotease-13 activity
[5] = target: T2, Matrix metalloproteinase-9 (Homo sapiens, UniProt P14780); experiment: Inhibition of Matrix metalloprotease-9 activity
T2 sequence (P14780 whole entry): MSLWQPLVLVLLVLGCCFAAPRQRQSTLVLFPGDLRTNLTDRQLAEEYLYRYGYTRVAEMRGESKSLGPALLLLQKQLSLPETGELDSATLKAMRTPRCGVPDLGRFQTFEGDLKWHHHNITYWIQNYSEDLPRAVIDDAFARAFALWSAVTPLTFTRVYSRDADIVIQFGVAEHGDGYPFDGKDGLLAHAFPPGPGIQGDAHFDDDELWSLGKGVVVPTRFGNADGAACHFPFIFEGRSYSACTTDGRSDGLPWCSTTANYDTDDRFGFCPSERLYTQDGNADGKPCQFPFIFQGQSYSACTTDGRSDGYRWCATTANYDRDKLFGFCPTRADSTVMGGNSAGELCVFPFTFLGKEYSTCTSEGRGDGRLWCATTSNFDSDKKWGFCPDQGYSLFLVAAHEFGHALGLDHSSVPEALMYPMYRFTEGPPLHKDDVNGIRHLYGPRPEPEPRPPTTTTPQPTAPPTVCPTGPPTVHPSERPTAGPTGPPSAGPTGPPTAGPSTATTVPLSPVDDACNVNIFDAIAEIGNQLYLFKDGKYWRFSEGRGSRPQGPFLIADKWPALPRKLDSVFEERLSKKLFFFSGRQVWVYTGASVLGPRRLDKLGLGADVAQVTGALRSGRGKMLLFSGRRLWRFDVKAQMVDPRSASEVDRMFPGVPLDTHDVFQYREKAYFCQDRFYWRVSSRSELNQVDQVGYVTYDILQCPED

[6] = target: T3, Interstitial collagenase (Homo sapiens, UniProt P03956); experiment: Inhibition of Matrix metalloprotease-1
T3 sequence (P03956 whole entry): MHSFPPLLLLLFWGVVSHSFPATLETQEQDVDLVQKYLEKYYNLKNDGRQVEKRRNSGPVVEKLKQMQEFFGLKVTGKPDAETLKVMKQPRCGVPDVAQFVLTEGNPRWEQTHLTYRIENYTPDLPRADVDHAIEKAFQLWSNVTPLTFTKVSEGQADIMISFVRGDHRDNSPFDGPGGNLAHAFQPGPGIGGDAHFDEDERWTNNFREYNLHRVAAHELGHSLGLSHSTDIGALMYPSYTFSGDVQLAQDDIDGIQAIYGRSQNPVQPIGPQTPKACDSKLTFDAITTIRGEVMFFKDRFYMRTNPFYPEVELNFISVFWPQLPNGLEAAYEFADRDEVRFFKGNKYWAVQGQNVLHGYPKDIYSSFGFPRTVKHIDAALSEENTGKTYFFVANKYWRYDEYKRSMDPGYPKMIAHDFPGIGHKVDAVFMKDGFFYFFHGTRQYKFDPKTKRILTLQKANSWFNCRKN

[7] = target: T1, Collagenase 3; experiment: Inhibition of Matrix metalloprotease-13 at 1 uM
[8] = target: T4, Interstitial collagenase (Homo sapiens) (UniProt P03956); experiment: Inhibition of Matrix metalloprotease-1 at 10 uM
T4 sequence (whole entry): T3 sequence (P03956 whole entry)

[9] = target: T2, Matrix metalloproteinase-9; experiment: Inhibition of Matrix metalloprotease-9 at 1 uM
[10] = target: T1, Collagenase 3; experiment: Inhibition of Matrix metalloprotease-13 at 10 uM
[11] = target: T2, Matrix metalloproteinase-9; experiment: Inhibition of Matrix metalloprotease-9 at 10 uM
[12] = target: T1, Collagenase 3; experiment: Inhibition of Matrix metalloprotease-13
[13] = tested on: THP-1; experiment: Compound was evaluated for its ability to inhibit […] production using THP-1 cellular assay at a concentration of 1 uM; assay type: functional; conditions: Homo sapiens

Structure (SMILES)	inhibition at 3 µM [2]	IC50 [3]	inhibition [8]	further results
Cc1cc(Br)cc(C(=O)NO)c1N(C)S(=O)(=O)c1ccc(OCC#CCO)cc1				inhibition at 1 µM [1]: 69%
CCCCOc1ccc(S(=O)(=O)N(C)c2c(C)cc(Br)cc2C(=O)NO)cc1	0%	67 nM		
CC#CCOc1ccc(S(=O)(=O)N(C)c2c(C(=O)NO)cc(-c3ccccc3)cc2C2CCN(C)CC2)cc1	95%	42 nM		IC50 [4]: 47 nM; IC50 [5]: 28 nM; IC50 [6]: 1920 nM
Cc1cc(Br)cc(C(=O)NO)c1N(C)S(=O)(=O)c1ccc(OCc2cccnc2)cc1	9%	28 nM	42%	inhibition [7]: 48%; inhibition [9]: 28%
CNCC#CCOc1ccc(S(=O)(=O)N(C)c2c(C)cc(Br)cc2C(=O)NO)cc1			26%	
CC#CCOc1ccc(S(=O)(=O)Nc2c(C)cccc2C(=O)NO)cc1	7%	84 nM	6%	inhibition [10]: 42%
CC#CCOc1ccc(S(=O)(=O)N(C)c2ccccc2C(=O)NO)cc1	32%	27 nM	35%	inhibition [11]: 61%
Cc1cc(Br)cc(C(=O)NO)c1N(C)S(=O)(=O)c1ccc(OCC#CCNCCCN(C)C)cc1			32%	
CC#CCOc1ccc(S(=O)(=O)N(C)c2c(C)cccc2C(=O)NO)cc1	55%	28 nM	85%	IC50 [4]: 416 nM
CC#CCOc1ccc(S(=O)(=O)N(C)c2c(C(=O)NO)cc(Br)cc2C2CCN(C)CC2)cc1	94%	25 nM		IC50 [12]: 252 nM; IC50 [5]: 166 nM
CCN(CC)CC#CCOc1ccc(S(=O)(=O)N(C)c2c(C)cc(Br)cc2C(=O)NO)cc1			21%	
COc1ccc(S(=O)(=O)N(C)c2c(C(=O)NO)cc(Br)cc2C2CCN(C)CC2)cc1	42%	26 nM		IC50 [4]: 5 nM; IC50 [5]: 2 nM; IC50 [6]: 194 nM
CC#CCOc1ccc(S(=O)(=O)N(C)c2c(C)cc(Br)cc2C(=O)NO)cc1				inhibition at 1 µM [13]: 59%
